Structures are written as SMILES.

The subject of one assay is CTG-2456. Description: Ex vivo AML PDX cell viability (Cell Titer Glo). Type of assay: cell-based. Conditions: Homo sapiens, 144 h; PDX model CTG-2456, 6 days; read-out: HC-7366 EC50. Here is the method:
(§1) . Cell viability was assayed after treating PDX models with DMSO or HC-7366 for 6 days using a plate-based luminescence assay (Cell Titer Glo). […]
(§2) EC50 values were calculated to the bottom of the curve and are provided below. Viability curves are provided for the models CTG-2229 (FIG. 81), CTG-3680 (FIG. 82), CTG-3667 (FIG. 83), CTG-2456 (FIG. 84), CTG-2457 (FIG. 85), and CTG-2454 (FIG. 86).
(In general: Cellular ATP, detected with luciferase, serves as a proxy for viable cell number.)

Another assay has as its system CTG-2236. The assay is described as follows: Ex vivo AML PDX cell viability (Cell Titer Glo). Conditions: Homo sapiens, 144 h; PDX model CTG-2236, 6 days; read-out: HC-7366 EC50. The format is cell-based. Here is the method:
as §1, §2

Another assay relates to CTG-2453. Description: Ex vivo AML PDX cell viability (Cell Titer Glo). The format is cell-based. Conditions: Homo sapiens, 144 h; PDX model CTG-2453, 6 days; read-out: HC-7366 EC50. Here is the method: as §1, §2
The subject of another assay is CTG-2457. The assay is described as follows: Ex vivo AML PDX cell viability (Cell Titer Glo). The settings on record: Homo sapiens, 144 h; PDX model CTG-2457, 6 days; read-out: HC-7366 EC50. Type of assay: cell-based. Here is the method:
as §1, §2

For another assay, the system named is CTG-2232. Description: Ex vivo AML PDX cell viability (Cell Titer Glo). The format is cell-based. The settings on record: Homo sapiens, 144 h; PDX model CTG-2232, 6 days; read-out: HC-7366 EC50. Here is the method: as §1, §2
The next assay concerns CTG-2235. Description: Ex vivo AML PDX cell viability (Cell Titer Glo). Type of assay: cell-based. The settings on record: Homo sapiens, 144 h; PDX model CTG-2235, 6 days; read-out: HC-7366 EC50. As for the experimental part:
as §1, §2

For another assay, the system named is CTG-3673. The assay is described as follows: Ex vivo AML PDX cell viability (Cell Titer Glo). The format is cell-based. The settings on record: Homo sapiens, 144 h; PDX model CTG-3673, 6 days; read-out: HC-7366 EC50. Here is the method: as §1, §2
The next assay has as its system CTG-3680. The assay is described as follows: Ex vivo AML PDX cell viability (Cell Titer Glo). The format is cell-based. The settings on record: Homo sapiens, 144 h; PDX model CTG-3680, 6 days; read-out: HC-7366 EC50. Here is the method: as §1, §2
In a further assay the test system is CTG-2227. The assay is described as follows: Ex vivo AML PDX cell viability (Cell Titer Glo). The settings on record: Homo sapiens, 144 h; PDX model CTG-2227, 6 days; read-out: HC-7366 EC50. The format is cell-based. As for the experimental part:
as §1, §2

The next assay has as its system CTG-3440. Description: Ex vivo AML PDX cell viability (Cell Titer Glo). Type of assay: cell-based. Conditions: Homo sapiens, 144 h; PDX model CTG-3440, 6 days; read-out: HC-7366 EC50. Here is the method: as §1, §2
The test system of the next assay is CTG-3674. Description: Ex vivo AML PDX cell viability (Cell Titer Glo). The format is cell-based. Conditions: Homo sapiens, 144 h; PDX model CTG-3674, 6 days; read-out: HC-7366 EC50. As for the experimental part: as §1, §2
In the next assay the test system is CTG-2455. Description: Ex vivo AML PDX cell viability (Cell Titer Glo). The settings on record: Homo sapiens, 144 h; PDX model CTG-2455, 6 days; read-out: HC-7366 EC50. Type of assay: cell-based. As for the experimental part:
as §1, §2

The subject of another assay is CTG-2775. Description: Ex vivo AML PDX cell viability (Cell Titer Glo). Type of assay: cell-based. Conditions: Homo sapiens, 144 h; PDX model CTG-2775, 6 days; read-out: HC-7366 EC50. Here is the method:
as §1, §2

The subject of the next assay is CTG-2234. The assay is described as follows: Ex vivo AML PDX cell viability (Cell Titer Glo). Type of assay: cell-based. Conditions: Homo sapiens, 144 h; PDX model CTG-2234, 6 days; read-out: HC-7366 EC50. As for the experimental part:
as §1, §2

For the next assay, the system named is CTG-2229. The assay is described as follows: Ex vivo AML PDX cell viability (Cell Titer Glo). Type of assay: cell-based. The settings on record: Homo sapiens, 144 h; PDX model CTG-2229, 6 days; read-out: HC-7366 EC50. Here is the method: as §1, §2
In the next assay the test system is CTG-3439. The assay is described as follows: Ex vivo AML PDX cell viability (Cell Titer Glo). The format is cell-based. Conditions: Homo sapiens, 144 h; PDX model CTG-3439, 6 days; read-out: HC-7366 EC50. As for the experimental part:
as §1, §2

The next assay concerns CTG-2700. The assay is described as follows: Ex vivo AML PDX cell viability (Cell Titer Glo). Type of assay: cell-based. The settings on record: Homo sapiens, 144 h; PDX model CTG-2700, 6 days; read-out: HC-7366 EC50. As for the experimental part:
as §1, §2

Another assay relates to CTG-2238. The assay is described as follows: Ex vivo AML PDX cell viability (Cell Titer Glo). Type of assay: cell-based. The settings on record: Homo sapiens, 144 h; PDX model CTG-2238, 6 days; read-out: HC-7366 EC50. Here is the method:
as §1, §2

Another assay concerns CTG-2233. The assay is described as follows: Ex vivo AML PDX cell viability (Cell Titer Glo). Type of assay: cell-based. The settings on record: Homo sapiens, 144 h; PDX model CTG-2233, 6 days; read-out: HC-7366 EC50. Here is the method:
as §1, §2

Assay [1] relates to TM00298 (human prostate cancer cells). Description: In vivo tumor growth inhibition, TM00298 PDX. More on the design: species or system NSG mice. The settings on record: both 3 mg/kg and 30 mg/kg twice daily oral. As for the experimental part: TM00298 (human prostate cancer cells): Male 6-8 weeks old NSG mice were inoculated subcutaneously with 1 mm^3 TM00298 tumor fragments. The treatments were started when the mean tumor size reached approximately 123 mm^3 and continued until end of study by twice daily oral gavage dosing of HC-7366 at listed doses (vehicle, 3 mg/kg HC-7366, or 30 mg/kg HC-7366, FIG. 15).
[formula] • 2.2.2 Tumor Measurements: The measurement of tumor size was conducted three times weekly with a caliper and recorded. The tumor volume (mm^3) was estimated using the formula: TV=a×b^2/2, where “a” and “b” is long and short diameters of a tumor, respectively. Tumor volume was calculated using the formula [tumor volume (mm^3)=π/6×length×width^2).
Regression was calculated using the formula=100×ΔT/T initial, if ΔT<0. Animals with 0 mm^3 tumor volume (no measurable tumor) for three consecutive measurements were considered as complete responders and animals with 50% tumor regressions were partial responders.

By EC50 is commonly meant the concentration at which the effect is half-maximal. `CNC(=O)c1ncn2cc(-c3c(F)ccc(NS(=O)(=O)c4cc(Cl)cnc4OC)c3F)ncc12` [HC-7366, 6-(3-((5-chloro-2-methoxypyridine)-3-sulfonamido)-2,6-difluorophenyl)-N-methylimidazo[1,5-a]pyrazine-1-carboxamide]: the EC50 with CTG-2456 was 31.8 µM; with CTG-2236, 36.5 µM; with CTG-2453, 180 µM; in the assay with CTG-2457 it was 248 µM; with CTG-2232, 84.3 µM; in the assay with CTG-2235 it was 103 µM. Further, the EC50 in the assay with CTG-3673 amounted to 65.6 µM; with CTG-3680, 231 µM; in the assay with CTG-2227 it was 39.9 µM; in the assay with CTG-3440, 55.2 µM; in the assay with CTG-3674, 129 µM; in the assay on CTG-2455, 35.7 µM. For the same molecule, the EC50 with CTG-2775 is 43.4 µM; in the assay on CTG-2234 it was 65.5 µM; with CTG-2229, 34 µM; with CTG-3439, 349 µM; in the assay with CTG-2700, 333 µM; in the assay with CTG-2238, 123 µM. In the assay on CTG-2233, the EC50 was 102 µM. For the same molecule, the tumor growth inhibition in [1] was ~70%.

Source of the values: patent US20250339426A1, “GCN2 MODULATOR FOR TREATING CANCER” (HIBERCELL, INC., priority 2022, published 2025).
